In brackets after ≈: the same amount, converted by molar mass. Where two headings read alike, the source gives them in different places. Marks after values point to notes of the source that are not given here.
Key:
[1] = test system: IIIB strain of HIV-1 (wild-type); assay: Anti-HIV-1 activity, MT-2 cells infected with wild-type HIV-1 (IIIB), MTT method; assay type: cell-based; details: for EC50: Human immunodeficiency virus 1, IIIB, MT2, read-out: EC50 WT
HIV-1 Y181C variant = assay: microbe, parasite or virus in culture; assay type: cell-based
physchem = details: for increase in S: 48 h; for solubility at 48 h: 25 °C, thermodynamic from solid
Experimental: The compounds were dissolved in Britton-Robinson buffer and stirred in vials for 48 hours at 25° C. The pH of the buffer solutions was measured by a Corning General Purpose pH Combination probe (4136L21).
For measurement of aqueous solubility, the pH of the buffer solutions was measured by Corning Combination pH Electrodes (4136L21) pH meter with Ag/AgCl glass electrode. […] An Ika® RCT basic magnetic stirrer was used to mix the two phases.
The equilibrium solubility of the non-ionized form of the samples was determined by the shake flask method. For each reported solubility result, two or three independent shake-flask experiments were carried out in parallel. For each experiment the 5 mg of the solid was added to 5 mL of the buffer in a vial. […] The standards and samples were measured by UV spectrophotometry at the maximum wavelength of the individual compounds.

[2] = test system: HIV-1 K103N/Y181C variant; assay: microbe, parasite or virus in culture; assay type: cell-based
in vitro = details: human
[3] = cited from earlier work; for aqueous solubility: literature values
[4] = Human immunodeficiency virus 1, MT2, read-out: EC50 K103N/Y181C
[5] = Human immunodeficiency virus 1, MT2, read-out: EC50, Y181C variant
[6] = Human immunodeficiency virus 1, MT2, read-out: EC50 Y181C

| SMILES | EC50 [2, 4] [µM] | EC50 (HIV-1 Y181C variant; [6]) [µM] | CC50 (in vitro) [µM] | EC50 [1] [µM] | further results |
| --- | --- | --- | --- | --- | --- |
| COc1nc(Nc2ccc(C#N)c(OCC=C(C)C)c2)nc(OCCN2CCOCC2)n1 [Compound 2j, 4-((4-methoxy-6-(2-morpholinoethoxy)-1,3,5-triazin-2-yl)amino)-2-((3-methylbut-2-en-1-yl)oxy)benzonitrile] | – | – | – | – | reduction in wild-type potency ([1]; relative to parent lacking the morpholinoalkoxy group (2a; 10a)): 9 fold; activity in the wild-type cell assay less ([1]; than rilpivirine or dapivirine): 100 fold; activity towards the Y181C-containing viral variant (HIV-1 Y181C variant): does not show activity |
| Cc1cc(C)c(Nc2cc(OCCN3CCOCC3)nc(Nc3ccc(C#N)cc3)n2)c(C)c1 [Compound 5a, 4-((4-(mesitylamino)-6-(2-morpholinoethoxy)pyrimidin-2-yl)amino)benzonitrile] | 0.06 | 0.7 | – | – | increase in S (physchem): 83 fold; Aqueous Solubility (S) (physchem; Table 5, pH 6.5): 12.5 µg/mL; EC50 (HIV-1 Y181C variant; [5]): 0.7 µM |
| Cc1cc(C)c(Nc2cc(OCCCN3CCOCC3)nc(Nc3ccc(C#N)cc3)n2)c(C)c1 [Compound 5b, 4-((4-(mesitylamino)-6-(3-morpholinopropoxy)pyrimidin-2-yl)amino)benzonitrile] | 0.038 | 0.48 | – | – | increase in S (physchem): 182 fold; Aqueous Solubility (S) (physchem; Table 5, pH 6.5): 27.3 µg/mL; EC50 (HIV-1 Y181C variant; [5]): 0.48 µM |
| Cc1cc(/C=C/C#N)cc(C)c1Nc1cc(OCCCN2CCOCC2)nc(Nc2ccc(C#N)cc2)n1 [Compound 5c, (E)-4-((4-((4-(2-cyanovinyl)-2,6-dimethylphenyl)amino)-6-(3-morpholinopropoxy)pyrimidin-2-yl)amino)benzonitrile] | 0.003 | 0.015 | 6.4 | 0.0037 | solubility at 48 h (physchem; pH 6.5, aqueous buffer): 2 µg/mL |
| N#C/C=C/c1cc(F)c(Nc2cc(OCCCN3CCOCC3)nc(Nc3ccc(C#N)cc3)n2)c(F)c1 [Compound 5d, (E)-4-((4-((4-(2-cyanovinyl)-2,6-difluorophenyl)amino)-6-(3-morpholinopropoxy)pyrimidin-2-yl)amino)benzonitrile] | 0.0071 | 0.15 | 18 | 0.0041 | – |
| Cc1cc(C)c(Nc2nc(Nc3ccc(C#N)cc3)nc(OCCN3CCOCC3)n2)c(C)c1 [Compound 6a, 4-((4-(mesitylamino)-6-(2-morpholinoethoxy)-1,3,5-triazin-2-yl)amino)benzonitrile] | 0.11 | 0.7 | – | – | Aqueous Solubility (S) (physchem; Table 5, pH 6.5): 4.42 µg/mL |
| Cc1cc(C)c(Nc2nc(Nc3ccc(C#N)cc3)nc(OCCCN3CCOCC3)n2)c(C)c1 [Compound 6b, 4-((4-(mesitylamino)-6-(3-morpholinopropoxy)-1,3,5-triazin-2-yl)amino)benzonitrile] | 0.031 | 0.31 | – | – | Aqueous Solubility (S) (physchem; Table 5, pH 6.5): 15.3 µg/mL; EC50 ([2]; Human immunodeficiency virus 1, MT2, read-out: EC50, K103N/Y181C variant): 0.031 µM; EC50 (HIV-1 Y181C variant; [5]): 0.31 µM |
| Cc1cc(C#N)cc(C)c1Nc1nc(Nc2ccc(C#N)cc2)nc(OCCCN2CCOCC2)n1 [Compound 6c, 4-((4-((4-cyanophenyl)amino)-6-(3-morpholinopropoxy)-1,3,5-triazin-2-yl)amino)-3,5-dimethylbenzonitrile] | 0.042 | 1 | – | – | Aqueous Solubility (S) (physchem; Table 5, pH 6.5): 13.3 µg/mL |
| Cc1cc(/C=C/C#N)cc(C)c1Nc1nc(Nc2ccc(C#N)cc2)nc(OCCCN2CCOCC2)n1 [Compound 6d, (E)-4-((4-((4-(2-cyanovinyl)-2,6-dimethylphenyl)amino)-6-(3-morpholinopropoxy)-1,3,5-triazin-2-yl)amino)benzonitrile] | – | – | – | – | solubility at 48 h (physchem; aqueous buffer): 14.2 µg/mL; increase in S (physchem): 100 fold; Aqueous Solubility (S) (physchem; Table 5, pH 6.5): 14.2 µg/mL |
| Cc1cc(F)c(Nc2nc(Nc3ccc(C#N)cc3)nc(OCCCN3CCOCC3)n2)c(F)c1 [Compound 6e, 4-((4-((2,6-difluoro-4-methylphenyl)amino)-6-(3-morpholinopropoxy)-1,3,5-triazin-2-yl)amino)benzonitrile] | 0.07 | 0.35 | – | – | Aqueous Solubility (S) (physchem; Table 5, pH 6.5): 22.9 µg/mL |
| CCc1cc(F)c(Nc2nc(Nc3ccc(C#N)cc3)nc(OCCCN3CCOCC3)n2)c(F)c1 [Compound 6f, 4-((4-((4-ethyl-2,6-difluorophenyl)amino)-6-(3-morpholinopropoxy)-1,3,5-triazin-2-yl)amino)benzonitrile] | 0.05 | 0.5 | – | – | – |
| CC(C)c1cc(F)c(Nc2nc(Nc3ccc(C#N)cc3)nc(OCCCN3CCOCC3)n2)c(F)c1 [Compound 6g, 4-((4-((2,6-difluoro-4-isopropylphenyl)amino)-6-(3-morpholinopropoxy)-1,3,5-triazin-2-yl)amino)benzonitrile] | 0.03 | 0.27 | – | – | – |
| N#Cc1ccc(Nc2nc(Nc3c(F)cc(C4CC4)cc3F)nc(OCCCN3CCOCC3)n2)cc1 [Compound 6h, 4-((4-((4-cyclopropyl-2,6-difluorophenyl)amino)-6-(3-morpholinopropoxy)-1,3,5-triazin-2-yl)amino)benzonitrile] | 0.15 | 1.1 | – | – | – |
| N#CCCc1cc(F)c(Nc2nc(Nc3ccc(C#N)cc3)nc(OCCCN3CCOCC3)n2)c(F)c1 [Compound 6i, 4-((4-((4-(2-cyanoethyl)-2,6-difluorophenyl)amino)-6-(3-morpholinopropoxy)-1,3,5-triazin-2-yl)amino)benzonitrile] | 0.02 | 0.23 | 27 | 0.005 | solubility at 48 h (physchem; pH 6.5, aqueous buffer): 25.4 µg/mL |
| N#C/C=C/c1cc(F)c(Nc2nc(Nc3ccc(C#N)cc3)nc(OCCCN3CCOCC3)n2)c(F)c1 [Compound 6j, (E)-4-((4-((4-(2-cyanovinyl)-2,6-difluorophenyl)amino)-6-(3-morpholinopropoxy)-1,3,5-triazin-2-yl)amino)benzonitrile] | 0.046 | 0.63 | 6.5 | 0.014 | – |
| Cc1cc(C)c(Nc2nc(Nc3ccc(C#N)cc3)nc(OCCC3CCNCC3)n2)c(C)c1 [Compound 12a, 4-((4-(mesitylamino)-6-(2-(piperidin-4-yl)ethoxy)-1,3,5-triazin-2-yl)amino)benzonitrile] | 0.042 | 1 | – | – | – |
| Cc1cc(C)c(Nc2nc(Nc3ccc(C#N)cc3)nc(OCCCC3CCNCC3)n2)c(C)c1 [Compound 12b, 4-((4-(mesitylamino)-6-(3-(piperidin-4-yl)propoxy)-1,3,5-triazin-2-yl)amino)benzonitrile] | 0.14 | 1.2 | – | – | – |
| Cc1cc(/C=C/C#N)cc(C)c1Nc1nc(NCCCN2CCOCC2)nc(Nc2ccc(C#N)cc2)n1 [JLJ0596, (E)-4-((4-((4-(2-cyanovinyl)-2,6-dimethylphenyl)amino)-6-((3-morpholinopropyl)amino)-1,3,5-triazin-2-yl)amino)benzonitrile] | 0.068 | 0.51 | 1.8 | 0.007 | – |
| N#C/C=C/c1cc(F)c(Nc2nc(NCCCN3CCOCC3)nc(Nc3ccc(C#N)cc3)n2)c(F)c1 [JLJ0597, (E)-4-((4-((4-(2-cyanovinyl)-2,6-difluorophenyl)amino)-6-((3-morpholinopropyl)amino)-1,3,5-triazin-2-yl)amino)benzonitrile] | 0.016 | 0.075 | 7 | 0.0057 | – |
| Cc1cc(/C=C/C#N)cc(C)c1Nc1cc(NCCCN2CCOCC2)nc(Nc2ccc(C#N)cc2)n1 [JLJ0618, (E)-4-((4-((4-(2-cyanovinyl)-2,6-dimethylphenyl)amino)-6-((3-morpholinopropyl)amino)pyrimidin-2-yl)amino)benzonitrile] | 0.002 | 0.017 | 4.5 | 0.003 | – |
| N#C/C=C/c1cc(F)c(Nc2cc(NCCCN3CCOCC3)nc(Nc3ccc(C#N)cc3)n2)c(F)c1 [JLJ0619, (E)-4-((4-((4-(2-cyanovinyl)-2,6-difluorophenyl)amino)-6-((3-morpholinopropyl)amino)pyrimidin-2-yl)amino)benzonitrile] | 0.034 | 0.47 | 2.2 | 0.0045 | – |
| CN1C(C(=O)Nc2ccccn2)=C(O)c2ccccc2S1(=O)=O [Piroxicam, reference compound] | – | – | – | – | Aqueous Solubility (S) (physchem; shake-flask, 25° C.): 7.2 µg/mL; aqueous solubility [3]: 6.4 µg/mL (≈ 19.3 µM) |
| CC(C)=CCOc1cc(NC(=S)c2ccoc2C)ccc1Cl [UC-781] | – | – | – | – | solubility ([3]; Yang et al. 2008): < 0.03 µg/mL |
| Cc1cc(C#N)cc(C)c1Oc1nc(Nc2ccc(C#N)cc2)nc(N)c1Br [etravirine] | – | – | – | – | Aqueous Solubility (S) ([3]; Table 5, literature values (Morelock 1994; Weuts 2011)): <<1^b μg/mL; aqueous solubility [3]: lower than 1 μg/mL |
